Measurements: patent publication US8901118B2, “Compounds and methods for kinase modulation, and indications therefor” (Plexxikon Inc., priority 2010, dated 2014)

How the values were obtained:
[1] = target: TrkA kinase (Homo sapiens, UniProt P04629); assay: TrkA kinase biochemical activity assay (AlphaScreen); conditions: 100 μM ATP; read-out: Biochemical Inhibition IC50 TrkA
Summary of the method: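 IC50 values come from AlphaScreen PY20/streptavidin bead signal versus compound concentration. Kinase reaction: 1 ng/well TrkA, 100 μM ATP, 30 nM biotin-(E4Y)10 substrate, Mn2+-containing Hepes buffer pH 7.5, 5% DMSO, 40 min, room temperature; TrkC assayed by the same approach.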

[2] = test system: SKNSH cells; assay: SKNSH (human neuroblastoma) cell proliferation assay (ATPlite); type: cell-based; conditions: SK-N-SH, read-out: Inhibition of Cell Proliferation IC50, SKNSH
Summary of the method: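 Fms/Trk inhibitor efficacy was tested by proliferation of SKNSH neuroblastoma cells. After 3 days of compound exposure at 37° C. in 5% CO2, 20 μL per well of ATPlite 1 step reagent was added, plates sat 10 minutes at room temperature, and luminescence, proportional to cell number, was read on a Safire reader to derive IC50.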

Chain of TrkA kinase (P04629 33-796): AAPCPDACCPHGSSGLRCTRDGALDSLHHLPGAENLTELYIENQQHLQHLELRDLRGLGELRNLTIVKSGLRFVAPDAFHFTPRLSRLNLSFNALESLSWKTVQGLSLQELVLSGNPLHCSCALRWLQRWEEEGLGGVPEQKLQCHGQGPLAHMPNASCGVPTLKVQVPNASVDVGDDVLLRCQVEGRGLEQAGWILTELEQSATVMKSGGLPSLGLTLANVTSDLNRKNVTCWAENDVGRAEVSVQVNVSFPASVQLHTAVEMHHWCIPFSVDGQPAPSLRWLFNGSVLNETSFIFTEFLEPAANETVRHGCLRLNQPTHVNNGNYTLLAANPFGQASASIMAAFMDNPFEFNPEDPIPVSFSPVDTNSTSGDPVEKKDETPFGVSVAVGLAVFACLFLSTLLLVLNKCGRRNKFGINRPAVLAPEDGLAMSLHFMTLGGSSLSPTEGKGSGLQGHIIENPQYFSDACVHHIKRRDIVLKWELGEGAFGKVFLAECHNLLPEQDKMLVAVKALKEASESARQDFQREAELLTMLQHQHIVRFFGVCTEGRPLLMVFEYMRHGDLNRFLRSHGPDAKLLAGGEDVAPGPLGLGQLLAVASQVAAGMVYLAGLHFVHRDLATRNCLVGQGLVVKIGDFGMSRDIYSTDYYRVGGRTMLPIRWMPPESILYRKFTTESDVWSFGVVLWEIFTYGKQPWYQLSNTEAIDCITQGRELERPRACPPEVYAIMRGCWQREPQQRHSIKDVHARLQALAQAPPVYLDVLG

Row | SMILES | IC50 [1] [nM] | IC50 [2] [nM]
1 | Nc1ncnc2[nH]cc(C(=O)c3ccc(NC4CCC(F)(F)CC4)nc3Cl)c12 [Compound P-4046, (4-amino-7H-pyrrolo[2,3-d]pyrimidin-5-yl)-[2-chloro-6-[(4,4-difluorocyclohexyl)amino]-3-pyridyl]methanone] | < 1000 | < 10000
2 | CC(C)=CNc1ncnc2[nH]cc(C(=O)c3ccc(NC4CCC(F)(F)CC4)nc3Cl)c12 [Compound P-4047, [2-chloro-6-[(4,4-difluorocyclohexyl)amino]-3-pyridyl]-[4-(2-methylprop-1-enylamino)-7H-pyrrolo[2,3-d]pyrimidin-5-yl]methanone] | > 1000 | 
3 | CCNc1ncnc2[nH]cc(C(=O)c3ccc(NC4CCC(F)(F)CC4)nc3Cl)c12 [Compound P-4050, [2-chloro-6-[(4,4-difluorocyclohexyl)amino]-3-pyridyl]-[4-(ethylamino)-7H-pyrrolo[2,3-d]pyrimidin-5-yl]methanone] | < 1000 | < 1000
4 | O=C(c1cnc(NC2CCC(F)(F)CC2)c(F)c1)c1c[nH]c2ncnc(NCC(F)(F)F)c12 [Compound P-4052, [6-[(4,4-difluorocyclohexyl)amino]-5-fluoro-3-pyridyl]-[4-(2,2,2-trifluoroethylamino)-7H-pyrrolo[2,3-d]pyrimidin-5-yl]methanone] | < 1000 | > 1000
5 | CNc1ncnc2[nH]cc(C(=O)c3cnc(NC4CCC(F)(F)CC4)c(F)c3)c12 [Compound P-4054, [6-[(4,4-difluorocyclohexyl)amino]-5-fluoro-3-pyridyl]-[4-(methylamino)-7H-pyrrolo[2,3-d]pyrimidin-5-yl]methanone] | < 100 | < 10000

Further lines, results first:

Row | IC50 [1] [nM] | IC50 [2] [nM] | SMILES
6 | < 10 |  | O=C(c1ccc(Nc2ccc(C3CC3)nc2)nc1F)c1c[nH]c2ncnc(C3CC3)c12 [Compound P-4040, [6-(6-Cyclopropyl-pyridin-3-ylamino)-2-fluoro-pyridin-3-yl]-(4-cyclopropyl-7H-pyrrolo[2,3-d]pyrimidin-5-yl)-methanone]
7 | < 10 |  | Fc1nc(Nc2ccc(C3CC3)nc2)ccc1Cc1c[nH]c2ncnc(C3CC3)c12 [Compound P-4041, (6-Cyclopropyl-pyridin-3-yl)-[5-(4-cyclopropyl-7H-pyrrolo[2,3-d]pyrimidin-5-ylmethyl)-6-fluoro-pyridin-2-yl]-amine]
8 | < 10 | < 1000 | Nc1ncnc2[nH]cc(C(=O)c3ccc(Nc4ccc(C5CC5)nc4)nc3F)c12 [Compound P-4048, (4-amino-7H-pyrrolo[2,3-d]pyrimidin-5-yl)-[6-[(6-cyclopropyl-3-pyridyl)amino]-2-fluoro-3-pyridyl]methanone]
9 | < 10 | < 1000 | CC(C)(O)CNc1ncnc2[nH]cc(C(=O)c3ccc(Nc4ccc(C5CC5)nc4)nc3F)c12 [Compound P-4049, [6-[(6-cyclopropyl-3-pyridyl)amino]-2-fluoro-3-pyridyl]-[4-[(2-hydroxy-2-methyl-propyl)amino]-7H-pyrrolo[2,3-d]pyrimidin-5-yl]methanone]
10 | < 10 | < 1000 | CCNc1ncnc2[nH]cc(C(=O)c3cnc(NC4CCC(F)(F)CC4)c(F)c3)c12 [Compound P-4051, [6-[(4,4-difluorocyclohexyl)amino]-5-fluoro-3-pyridyl]-[4-(ethylamino)-7H-pyrrolo[2,3-d]pyrimidin-5-yl]methanone]
11 | < 10 | < 1000 | O=C(c1cnc(NC2CCC(F)(F)CC2)c(F)c1)c1c[nH]c2ncnc(NC3CC3)c12 [Compound P-4053, [4-(cyclopropylamino)-7H-pyrrolo[2,3-d]pyrimidin-5-yl]-[6-[(4,4-difluorocyclohexyl)amino]-5-fluoro-3-pyridyl]methanone]
